Data from patent US20050250137A1, “Molecular targets of cancer and aging” (priority 2002, published 2005).
“Also recorded” adds a separate entry of the source.

Columns and labels:
[1] = system: immortal (high passage) MDAH041 cells
immortal MDAH041 cells = test: Western blot protein expression after 5-aza-dC, immortal MDAH041; format: cell-based, human; conditions: for p16^INK4a protein upregulation: 5-aza-CdR-treated vs untreated immortal MDAH041; for p21 protein levels: 5-aza-dC treatment of immortal MDAH041
Experimental: Twenty μg of cell extract was boiled for 5 minutes in sample buffer, electrophoresed on a 15% SDS-polyacrylamide gel, and transferred to nitrocellulose. […] The anti-mouse IgG was incubated with the blot for 1 hour at room temperature. The signal was detected by enhanced chemiluminescence. […] Louis, Mo.). Lysates were incubated on ice for 30 minutes followed by centrifugation at 10,000×g. Protein was quantitated using the Bradford Reagent (Sigma, St. Louis, Mo.). Equal amounts of protein were electrophoresed in an appropriate percentage SDS-polyacrylamide gel (SDS-PAGE) and transferred to nitrocellulose membranes. The membranes were incubated with antibodies as indicated. […] The western blots were then incubated with a horseradish peroxidase-conjugated secondary and developed using SuperSignal West Pico (Pierce, Rockford, Ill.). As a control, parallel western blots were probed with α-Tubulin.

[2] = Western blot, listed as 5AZA-dC
[3] = Western blot, after 5-aza-dC treatment, MDAH041
[4] = Western blot, immortal MDAH041 treated with 5-aza-dC

Q: For `Nc1ncn([C@H]2C[C@H](O)[C@@H](CO)O2)c(=O)n1` [5-aza-dC, 5-aza-2′-deoxycytidine], which “Insulin-like growth factor binding protein-4 expression” value [1] is on record?
A: The value was 3.8 fold.

Q: What about the “Integral membrane glycoprotein LIG-1 (TM4SF1) expression” value [1] of the same molecule?
A: Its value is 5.2 fold.

Q: What about the “Interferon regulatory factor 7B expression” value [1] of the same molecule?
A: Its value is 17.5 fold.

Q: What about the “Interferon, alpha-inducible protein 27 expression” value [1] of the same molecule?
A: The value was 482.0 fold.

Q: What about the “Interferon-induced p78, Mx1 expression” value [1] of the same molecule?
A: Its value is 202 fold.

Q: What about the “Interferon-induced p78, MxB expression” value [1] of the same molecule?
A: Its value is 122.1 fold.

Q: What about the “Interferon-inducible 56 Kd protein expression” value [1] of the same molecule?
A: Its value is 36.6 fold.

Q: What about the “Interferon-inducible 56 kDa protein expression” value [1] of the same molecule?
A: Its value is 36.6 fold.

Q: What about the “Interferon-inducible membrane protein 9-27 (IFITM1) expression” value [1] of the same molecule?
A: Its value is 8.8 fold.

Q: And the “Interferon-inducible peptide (6-16) expression” value [1]?
A: Its value is 10.2 fold.

Q: And the “Interferon-inducible protein 9-27 expression” value [1]?
A: Its value is 8.8 fold.

Q: What about the “Interferon-inducible protein (Absent in Melanoma 2, AIM2) expression” value [1] of the same molecule?
A: The value was 21.6 fold.

Q: What about the “Interferon-inducible protein AIM2 (absent in melanoma) expression” value [1] of the same molecule?
A: Its value is 21.6 fold.

Q: And the “Interferon-inducible protein Mx1 expression” value [1]?
A: Its value is 42 fold.

Q: What about the “Interferon-inducible protein p78, Mx2 expression” value [1] of the same molecule?
A: The value was 202 fold.

Q: And the “Interferon-stimulated gene p27 mRNA expression” value [1]?
A: Its value is 482.0 fold.

Q: What about the “Interleukin 8 expression” value [1] of the same molecule?
A: The value was 92.7 fold.

Q: And the “K12 protein precursor (SECTM1) expression” value [1]?
A: The value was 19.6 fold.

Q: And the KIAA0744 protein expression [1]?
A: Its KIAA0744 protein expression is 8.6 fold.

Q: And the “KIAA 1077 protein Sulfatase FP expression” value [1]?
A: Its value is 10.9 fold.

Q: What about the “KIAA1750 expression, 5A” value [1] of the same molecule?
A: Its value is 2.9 fold.

Q: And the “KIAA1750 expression, IM vs 5-aza-dC, MA” value [1]?
A: The value was 2.88 fold.

Q: And the “Keratin 18 expression” value [1]?
A: The value was 13.5 fold.

Q: And the “Ly-6-related protein (9804) gene expression” value [1]?
A: Its value is 34.1 fold.

Q: What about the “MAP1LC3B expression, 5A” value [1] of the same molecule?
A: Its value is 1.7 fold.

Q: And the “Major group rhinovirus receptor (HRV) ICAM expression” value [1]?
A: The value was 28.9 fold.

Q: And the “Major group rhinovirus receptor (HRV) expression” value [1]?
A: The value was 28.9 fold.

Q: And the “Melanoma growth stimulatory activity (MGSA) (GRO-1) expression” value [1]?
A: Its value is 64.6 fold.

Q: What about the “Microphage migration inhibitory factor (MIF) expression” value [1] of the same molecule?
A: Its value is 42.1 fold.

Q: What about the “Microtubular protein 44 expression” value [1] of the same molecule?
A: The value was 17.8 fold.

Q: And the “Microtubular protein p44 (IFI44) expression” value [1]?
A: The value was 17.8 fold.

Q: What about the “NK4 protein (natural killer cell transcript 4) expression” value [1] of the same molecule?
A: Its value is 20.2 fold.

Q: And the “Neurite outgrowth-promoting protein expression” value [1]?
A: Its value is 7.1 fold.

Q: And the “Neuromedin B Precursor expression” value [1]?
A: The value was 5.6 fold.

Q: What about the “Nk4 protein (natural killer cell transcript 4) expression” value [1] of the same molecule?
A: The value was 20.2 fold.

Q: What about the “OPTN expression, 5A” value [1] of the same molecule?
A: Its value is 2.6 fold.

Q: What about the “OPTN expression, IM vs 5-aza-dC, MA” value [1] of the same molecule?
A: The value was 2.6 fold.

Q: And the Optineurin-like protein expression [1]?
A: The Optineurin-like protein expression was 4.2 fold.

Q: And the “PCTAIRE 2 (pctaire protein kinase) expression” value [1]?
A: The value was 19.3 fold.

Q: And the “Pig 7 expression” value [1]?
A: The value was 9.4 fold.

Q: And the “Placental protein 5 (PP5) expression” value [1]?
A: Its value is 29.3 fold.

Q: What about the “Placental tissue factor (two forms) expression” value [1] of the same molecule?
A: The value was 8.7 fold.

Q: And the “Putative monocarboxylate transporter expression” value [1]?
A: The value was 6.3 fold.

Q: And the “Rad (Ras associated with diabetes) expression” value [1]?
A: Its value is 19.7 fold.

Q: And the “Retinoic acid receptor responder 3 expression” value [1]?
A: The value was 7.1 fold.

Q: What about the “SERPINB2 expression, 5A” value [1] of the same molecule?
A: Its value is 4.2 fold.

Q: What about the “SERPINB2 expression, IM vs 5-aza-dC, MA” value [1] of the same molecule?
A: The value was 4.2 fold.

Q: What about the “STAT1α expression, IM vs 5-aza-dC, MA” value [1] of the same molecule?
A: Its value is 2.92 fold.

Q: And the “Signal Transducer Activator of Transcription 1 STAT1 91 kDa expression” value [1]?
A: The value was 7.6 fold.

Q: What about the “Similar to gb: L 19779 HISTONE H2A.1 expression” value [1] of the same molecule?
A: The value was 10.3 fold.

Q: What about the “Skin collagenase MMP1 expression” value [1] of the same molecule?
A: The value was 4.8 fold.

Q: What about the “TESTIN 3 testis derived transcript (3 LIM domains) expression” value [1] of the same molecule?
A: The value was 8.1 fold.

Q: And the “TNF-related apoptosis inducing ligand TRAIL expression” value [1]?
A: Its value is 42.2 fold.

Q: And the “TNF-related apoptosis inducing ligand, TRAIL expression” value [1]?
A: The value was 42.2 fold.

Q: And the “TNFAIP2 expression, 5A” value [1]?
A: Its value is 5.4 fold.

Q: What about the “TNFAIP2 expression, IM vs 5-aza-dC, MA” value [1] of the same molecule?
A: The value was 5.41 fold.

Q: What about the “Tat-interacting protein TIP30 expression” value [1] of the same molecule?
A: Its value is 8.9 fold.

Q: And the “Transcription Factor MAFF expression” value [1]?
A: The value was 8.1 fold.

Q: What about the “Transcription factor ISGF-3 (Stat 1) expression” value [1] of the same molecule?
A: Its value is 7.6 fold.

Q: What about the “Transglutaminase (TGase) expression” value [1] of the same molecule?
A: Its value is 144.6 fold.

Q: What about the “Tripartite motif-containing protein 14, TRIM14 expression” value [1] of the same molecule?
A: The value was 6.2 fold.

Q: And the “Tumor antigen (L6) expression” value [1]?
A: The value was 17.5 fold.

Q: And the “Tumor necrosis factor-inducible (TSG-6) expression” value [1]?
A: The value was 10.3 fold.

Q: And the “Tyrosine protein kinase (CAK) gene expression” value [1]?
A: The value was 5.7 fold.

Q: And the “Ubiquitin-conjugating enzyme E2L6 (UBE2L6) expression” value [1]?
A: Its value is 5.9 fold.

Q: And the “VAMP45 (vesicle-associated membrane protein 5) expression” value [1]?
A: Its value is 9.1 fold.

Q: And the “mRNA expressed in osteoblast expression” value [1]?
A: Its value is 32.5 fold.

Q: And the “uPA gene (urokinase-plasminogen activator gene) expression” value [1]?
A: Its value is 4.4 fold.

Q: And the “p16^INK4a protein upregulation” value (immortal MDAH041 cells; Western blot, listed as 5-aza-CdR)?
A: Its value is “over 500 fold”.

Q: What about the “p16^INK4a protein upregulation” value (immortal MDAH041 cells; [2]) of the same molecule?
A: The value was “approximately 500 fold”.

Q: And the p21 protein levels (immortal MDAH041 cells; Western blot)?
A: The p21 protein levels was “protein expression of both was induced”.

Q: And the p21 protein levels (immortal MDAH041 cells; [2])?
A: Its p21 protein levels is “not regulated”.

Q: And the IGFBP4 protein (immortal MDAH041 cells; [3])?
A: The IGFBP4 protein was “slight induction; also recorded: little to no induction”.

Q: What about the IGFBPrP1 protein (immortal MDAH041 cells; [3]) of the same molecule?
A: Its IGFBPrP1 protein is “little to no induction”.

Q: And the “p16^INK4a protein expression” value (immortal MDAH041 cells; [4])?
A: The value was “protein expression of both was induced”.

Q: And the “protein levels of STAT1α” value (immortal MDAH041 cells; [4])?
A: Its value is “increased in response to treatment”.

Q: And the IGFBP3 protein levels (immortal MDAH041 cells; Western blot, response to 5-aza-dC, MDAH041)?
A: Its IGFBP3 protein levels is “increased in response to 5-aza-dC”.

Q: What about the STAT1 protein upregulation (immortal MDAH041 cells; immortal cells, 5AZA-dC treatment) of the same molecule?
A: Its STAT1 protein upregulation is 4.7 fold.
